Patent US9518018B2, “3-alkoxy, thioalkyl and amino-4-amino-6-(substituted)picolinates and their use as herbicides” (Dow AgroSciences LLC, priority 2011, dated 2016)

System: desired test plant species
Experiment: Foliar-applied postemergence herbicidal activity in direct seeded rice (Table 6)
Assay type: in vivo
Conditions: 21 DAA
From the text: Seeds or nutlets of the desired test plant species were planted in a soil matrix prepared by mixing a loam soil (43 percent silt, 19 percent clay, and 38 percent sand, with a pH of about 8.1 and an organic matter content of about 1.5 percent) and river sand in an 80 to 20 ratio. The soil matrix was contained in plastic pots with a surface area of 139.7 cm^2. When required to ensure good germination and healthy plants, a fungicide treatment and/or other chemical or physical treatment was applied. The plants were grown for 10-17 d in a greenhouse with an approximate 14-h photoperiod which was maintained at about 29° C. during the day and 26° C. during the night. Nutrients and water were added on a regular basis and supplemental lighting was provided with overhead metal halide 1000-Watt lamps as necessary. The plants were employed for testing when they reached the second or third true leaf stage. Treatments consisted of compounds 45, 34, and 66. Weighed amounts of technical compounds were placed in individual 25 mL glass vials and dissolved in 8 mL of 97:3 v/v acetone-DMSO to obtain stock solutions. […] The spray application solutions were prepared by removing 4 mL of the stock solution and diluting with 4 mL of 97:3 v/v acetone-DMSO and continued serial dilution to obtain 1⁄2×, 1⁄4×, 1⁄8×, and 1/16× rates of the high rate. Spray solutions were diluted to the appropriate final concentrations with the addition of 8 mL of an aqueous mixture of 1.875% (v/v) Agri-dex crop oil concentrate. The final 12-mL spray solutions each contained 1.25% (v/v) Agri-dex crop oil concentrate, 32.3% acetone, and 1.0% DMSO. Compound requirements are based upon a 12 mL application volume at a rate of 187 L/ha. Spray solutions were applied to the plant material with an overhead Mandel track sprayer equipped with […] nozzles calibrated to deliver 187 L/ha over an application area of 0.503 square meters (m^2) at a spray height of 18 inches ([…]) above average plant canopy height. Control plants were sprayed in the same manner with the solvent blank. The treated plants and control plants were placed in a greenhouse as described above and watered by sub-irrigation to prevent wash-off of the test compounds. After approximately 3 weeks, the condition of the test plants, compared with that of the untreated plants, was determined visually and scored on a scale of 0 to 100 percent where 0 corresponds to no injury and 100 corresponds to complete kill. By applying the well-accepted probit analysis as described by J. Berkson in Journal of the […], 48, 565 (1953) and by D. Finney in “Probit Analysis” Cambridge University Press (1952) or by plotting the mean data and fitting a logarithmic curve to the portion of the data where there was a dose response using Microsoft Excel®, the above data can be used to calculate GR50 and GR90 values, which are defined as growth reduction factors that correspond to the effective dose of herbicide required to kill or control 50 percent or 90 percent, respectively, of a target plant.

COC(=O)c1nc(-c2ccc(Cl)c(OC)c2F)c(F)c(N)c1OC [Compound 34]
Mean Visual Injury (%)-21 Days After Application AESSE (AESSE (Aeschynomene sensitiva, sensitive jointvetch), 4.38 g ae/ha): 100% | Mean Visual Injury (%)-21 Days After Application AESSE (AESSE (Aeschynomene sensitiva, sensitive jointvetch), 8.75 g ae/ha): 100% | Mean Visual Injury (%)-21 Days After Application AESSE (AESSE (Aeschynomene sensitiva, sensitive jointvetch), 17.5 g ae/ha): 100% | Mean Visual Injury (%)-21 Days After Application AESSE (AESSE (Aeschynomene sensitiva, sensitive jointvetch), 35 g ae/ha): 100% | Mean Visual Injury (%)-21 Days After Application AESSE (AESSE (Aeschynomene sensitiva, sensitive jointvetch), 70 g ae/ha): 100% | GR50 AESSE (AESSE (Aeschynomene sensitiva, sensitive jointvetch), dose to kill or control 50 percent): <4.38 g ae/ha | GR90 AESSE (AESSE (Aeschynomene sensitiva, sensitive jointvetch), dose to kill or control 90 percent): <4.38 g ae/ha | Mean Visual Injury (%)-21 Days After Application BRAPP (BRAPP (Brachiaria platyphylla, broadleaf signalgrass), 4.38 g ae/ha): 73% | Mean Visual Injury (%)-21 Days After Application BRAPP (BRAPP (Brachiaria platyphylla, broadleaf signalgrass), 8.75 g ae/ha): 77% | Mean Visual Injury (%)-21 Days After Application BRAPP (BRAPP (Brachiaria platyphylla, broadleaf signalgrass), 17.5 g ae/ha): 93% | Mean Visual Injury (%)-21 Days After Application BRAPP (BRAPP (Brachiaria platyphylla, broadleaf signalgrass), 35 g ae/ha): 92% | Mean Visual Injury (%)-21 Days After Application BRAPP (BRAPP (Brachiaria platyphylla, broadleaf signalgrass), 70 g ae/ha): 93% | GR50 BRAPP (BRAPP (Brachiaria platyphylla, broadleaf signalgrass), dose to kill or control 50 percent): <4.38 g ae/ha | GR90 BRAPP (BRAPP (Brachiaria platyphylla, broadleaf signalgrass), dose to kill or control 90 percent): 30.2 g ae/ha | Mean Visual Injury (%)-21 Days After Application CYPDI (CYPDI (Cyperus difformis, small-flower flatsedge), 4.38 g ae/ha): 87% | Mean Visual Injury (%)-21 Days After Application CYPDI (CYPDI (Cyperus difformis, small-flower flatsedge), 8.75 g ae/ha): 95% | Mean Visual Injury (%)-21 Days After Application CYPDI (CYPDI (Cyperus difformis, small-flower flatsedge), 17.5 g ae/ha): 100% | Mean Visual Injury (%)-21 Days After Application CYPDI (CYPDI (Cyperus difformis, small-flower flatsedge), 35 g ae/ha): 100% | Mean Visual Injury (%)-21 Days After Application CYPDI (CYPDI (Cyperus difformis, small-flower flatsedge), 70 g ae/ha): 100% | GR50 CYPDI (CYPDI (Cyperus difformis, small-flower flatsedge), dose to kill or control 50 percent): <4.38 g ae/ha | GR90 CYPDI (CYPDI (Cyperus difformis, small-flower flatsedge), dose to kill or control 90 percent): 5.8 g ae/ha | Mean Visual Injury (%)-21 Days After Application CYPES (CYPES (Cyperus esculentus, yellow nutsedge), 4.38 g ae/ha): 73% | Mean Visual Injury (%)-21 Days After Application CYPES (CYPES (Cyperus esculentus, yellow nutsedge), 8.75 g ae/ha): 73% | Mean Visual Injury (%)-21 Days After Application CYPES (CYPES (Cyperus esculentus, yellow nutsedge), 17.5 g ae/ha): 85% | Mean Visual Injury (%)-21 Days After Application CYPES (CYPES (Cyperus esculentus, yellow nutsedge), 35 g ae/ha): 95% | Mean Visual Injury (%)-21 Days After Application CYPES (CYPES (Cyperus esculentus, yellow nutsedge), 70 g ae/ha): 100% | GR50 CYPES (CYPES (Cyperus esculentus, yellow nutsedge), dose to kill or control 50 percent): <4.38 g ae/ha | GR90 CYPES (CYPES (Cyperus esculentus, yellow nutsedge), dose to kill or control 90 percent): 27.4 g ae/ha | Mean Visual Injury (%)-21 Days After Application CYPIR (CYPIR (Cyperus iria, rice flatsedge), 4.38 g ae/ha): 83% | Mean Visual Injury (%)-21 Days After Application CYPIR (CYPIR (Cyperus iria, rice flatsedge), 8.75 g ae/ha): 97% | Mean Visual Injury (%)-21 Days After Application CYPIR (CYPIR (Cyperus iria, rice flatsedge), 17.5 g ae/ha): 98% | Mean Visual Injury (%)-21 Days After Application CYPIR (CYPIR (Cyperus iria, rice flatsedge), 35 g ae/ha): 100% | Mean Visual Injury (%)-21 Days After Application CYPIR (CYPIR (Cyperus iria, rice flatsedge), 70 g ae/ha): 100% | GR50 CYPIR (CYPIR (Cyperus iria, rice flatsedge), dose to kill or control 50 percent): <4.38 g ae/ha | GR90 CYPIR (CYPIR (Cyperus iria, rice flatsedge), dose to kill or control 90 percent): 6.7 g ae/ha | Mean Visual Injury (%)-21 Days After Application ECHCG (ECHCG (Echinochloa crus-galli, barnyardgrass), 4.38 g ae/ha): 93% | Mean Visual Injury (%)-21 Days After Application ECHCG (ECHCG (Echinochloa crus-galli, barnyardgrass), 8.75 g ae/ha): 93% | Mean Visual Injury (%)-21 Days After Application ECHCG (ECHCG (Echinochloa crus-galli, barnyardgrass), 17.5 g ae/ha): 96% | Mean Visual Injury (%)-21 Days After Application ECHCG (ECHCG (Echinochloa crus-galli, barnyardgrass), 35 g ae/ha): 98% | Mean Visual Injury (%)-21 Days After Application ECHCG (ECHCG (Echinochloa crus-galli, barnyardgrass), 70 g ae/ha): 95% | GR50 ECHCG (ECHCG (Echinochloa crus-galli, barnyardgrass), dose to kill or control 50 percent): <4.38 g ae/ha | GR90 ECHCG (ECHCG (Echinochloa crus-galli, barnyardgrass), dose to kill or control 90 percent): <4.38 g ae/ha
